Assay results reported in patent US20260078120A1, “SUBSTITUTED PYRIDOPYRIMIDINONES” (MIRATI THERAPEUTICS, INC., priority 2022, published 2026).

Legend:
[1] = tested on: T47D (PI3Kα H1047R mutant) cells; assay: CellTiter-Glo 2.0 luminescent cell viability assay, 72 hours, T47D cells; format: cell-based; conditions: Homo sapiens, T47D, 72 h, T47D (PI3Kα H1047R mutant) cells, CellTiter-Glo, approximately 72 hours; read-out: T47D (H1047R mutant) Viability IC50
How it was run: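 Cells seeded at 1000 per well overnight were dosed with a 10-concentration, 1:4 series starting at 10 µM and incubated ~72 h at 37° C. Viability was read by CellTiter-Glo 2.0 luminescence after 30 min at room temperature. IC50 came from four-parameter fits of percent vehicle control.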

[2] = tested on: SKBR3 (PI3Kα wild type) cells; assay: CellTiter-Glo 2.0 luminescent cell viability assay, 72 hours, SKBR3 cells; format: cell-based; conditions: Homo sapiens, SK-BR-3, 72 h, SKBR3 (PI3Kα wild type) cells, CellTiter-Glo, approximately 72 hours; read-out: SKBR3 (WT) Viability IC50
How it was run: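 Viability measured via CTG luminescence following roughly 72 hours of compound exposure at 37° C. Dosing used a 10 um starting concentration diluted 1:4 over 10 points; percent-of-vehicle data fitted with a variable-slope four-parameter model for IC50.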

| SMILES | IC50 [1] [nM] | IC50 [2] [nM] |
| --- | --- | --- |
| Cc1cc([C@@H](C)Nc2ccccc2C(=O)O)c2nc(N(C)CC3CC3)c(C)c(=O)n2c1 [Example 11-203, (R)-2-((1-(2-((cyclopropylmethyl)(methyl)amino)-3,7-dimethyl-4-oxo-4H-pyrido[1,2-a]pyrimidin-9-yl)ethyl)amino)benzoic acid] | 356 | > 10000 |
| Cc1cc([C@@H](C)Nc2ccccc2C(=O)O)c2nc(NCC3COC3)c(C#N)c(=O)n2c1 [Example 11-204, (R)-2-((1-(3-cyano-7-methyl-2-((oxetan-3-ylmethyl)amino)-4-oxo-4H-pyrido[1,2-a]pyrimidin-9-yl)ethyl)amino)benzoic acid] | 1600 | > 10000 |
| Cc1cc([C@@H](C)Nc2ccccc2C(=O)O)c2nc(NCC3COC3)c(C)c(=O)n2c1 [Example 11-205, (R)-2-((1-(3,7-dimethyl-2-((oxetan-3-ylmethyl)amino)-4-oxo-4H-pyrido[1,2-a]pyrimidin-9-yl)ethyl)amino)benzoic acid] | 1560 | > 10000 |
| Cc1cc([C@@H](C)Nc2ccc(Cl)nc2C(=O)O)c2nc(NCC3CC3)c(C#N)c(=O)n2c1 [Example 11-206, (R)-6-chloro-3-((1-(3-cyano-2-((cyclopropylmethyl)amino)-7-methyl-4-oxo-4H-pyrido[1,2-a]pyrimidin-9-yl)ethyl)amino)picolinic acid] | 132 | > 10000 |
| Cc1cc([C@@H](C)Nc2ccccc2C(=O)O)c2nc(NCC3CC3)c(C)c(=O)n2c1 [Example 11-207, (R)-2-((1-(2-((cyclopropylmethyl)amino)-3,7-dimethyl-4-oxo-4H-pyrido[1,2-a]pyrimidin-9-yl)ethyl)amino)benzoic acid] | 342 | > 10000 |
| Cc1cc([C@@H](C)Nc2ccccc2C(=O)O)c2nc(N3CCC4(CC3)COC4)c(C#N)c(=O)n2c1 [Example 11-208, (R)-2-((1-(3-cyano-7-methyl-4-oxo-2-(2-oxa-7-azaspiro[3.5]nonan-7-yl)-4H-pyrido[1,2-a]pyrimidin-9-yl)ethyl)amino)benzoic acid] | 469 | > 10000 |
| Cc1cc([C@@H](C)Nc2ccccc2C(=O)O)c2nc(N3CCC[C@@H](C(F)(F)F)C3)c(C#N)c(=O)n2c1 [Example 11-209, 2-(((R)-1-(3-cyano-7-methyl-4-oxo-2-((R)-3-(trifluoromethyl)piperidin-1-yl)-4H-pyrido[1,2-a]pyrimidin-9-yl)ethyl)amino)benzoic acid] | 439 | > 10000 |
| Cc1cc([C@@H](C)Nc2ccccc2C(=O)O)c2nc(N3CCC[C@H](C(F)(F)F)C3)c(C#N)c(=O)n2c1 [Example 11-210, 2-(((R)-1-(3-cyano-7-methyl-4-oxo-2-((S)-3-(trifluoromethyl)piperidin-1-yl)-4H-pyrido[1,2-a]pyrimidin-9-yl)ethyl)amino)benzoic acid] | 361 | > 10000 |
| Cc1cc([C@@H](C)Nc2ccccc2C(=O)O)c2nc(N3CCC[C@@H](C(F)(F)F)C3)c(C)c(=O)n2c1 [Example 11-211, 2-(((R)-1-(3,7-dimethyl-4-oxo-2-((R)-3-(trifluoromethyl)piperidin-1-yl)-4H-pyrido[1,2-a]pyrimidin-9-yl)ethyl)amino)benzoic acid] | 520 | > 10000 |
| Cc1cc([C@@H](C)Nc2ccccc2C(=O)O)c2nc(N3CCC[C@H](C(F)(F)F)C3)c(C)c(=O)n2c1 [Example 11-212, 2-(((R)-1-(3,7-dimethyl-4-oxo-2-((S)-3-(trifluoromethyl)piperidin-1-yl)-4H-pyrido[1,2-a]pyrimidin-9-yl)ethyl)amino)benzoic acid] | 1360 | > 10000 |
| Cc1cc([C@@H](C)Nc2ccccc2C(=O)O)c2nc(N3CCC4(CC3)C(F)(F)C4(F)F)c(C)c(=O)n2c1 [Example 11-213, (R)-2-((1-(3,7-dimethyl-4-oxo-2-(1,1,2,2-tetrafluoro-6-azaspiro[2.5]octan-6-yl)-4H-pyrido[1,2-a]pyrimidin-9-yl)ethyl)amino)benzoic acid] | 257 | > 10000 |
| Cc1cc([C@@H](C)Nc2ccccc2C(=O)O)c2nc(N3C4CCC3c3ccccc34)c(C#N)c(=O)n2c1 [Example 11-214, 2-(((1R)-1-(3-cyano-7-methyl-4-oxo-2-(1,2,3,4-tetrahydro-1,4-epiminonaphthalen-9-yl)-4H-pyrido[1,2-a]pyrimidin-9-yl)ethyl)amino)benzoic acid] | 262 | > 10000 |
| Cc1cc([C@@H](C)Nc2ccccc2C(=O)O)c2nc(N3C4CCC3c3ccccc34)c(C)c(=O)n2c1 [Example 11-215, 2-(((1R)-1-(3,7-dimethyl-4-oxo-2-(1,2,3,4-tetrahydro-1,4-epiminonaphthalen-9-yl)-4H-pyrido[1,2-a]pyrimidin-9-yl)ethyl)amino)benzoic acid] | 303 | > 10000 |
| Cc1cc([C@@H](C)Nc2ccccc2C(=O)O)c2nc(N3CCn4c(nnc4C(F)(F)F)C3)c(C#N)c(=O)n2c1 [Example 11-216, (R)-2-((1-(3-cyano-7-methyl-4-oxo-2-(3-(trifluoromethyl)-5,6-dihydro-[1,2,4]triazolo[4,3-a]pyrazin-7(8H)-yl)-4H-pyrido[1,2-a]pyrimidin-9-yl)ethyl)amino)benzoic acid] | > 10000 | > 10000 |
| Cc1cc([C@@H](C)Nc2ccccc2C(=O)O)c2nc(N3CCn4c(nnc4C(F)(F)F)C3)c(C)c(=O)n2c1 [Example 11-217, (R)-2-((1-(3,7-dimethyl-4-oxo-2-(3-(trifluoromethyl)-5,6-dihydro-[1,2,4]triazolo[4,3-a]pyrazin-7(8H)-yl)-4H-pyrido[1,2-a]pyrimidin-9-yl)ethyl)amino)benzoic acid] | > 10000 | > 10000 |
| Cc1cc([C@@H](C)Nc2ccccc2C(=O)O)c2nc(N3CCC4(CC3)CC4(F)F)c(C#N)c(=O)n2c1 [Example 11-218, (R)-2-((1-(3-cyano-2-(1,1-difluoro-6-azaspiro[2.5]octan-6-yl)-7-methyl-4-oxo-4H-pyrido[1,2-a]pyrimidin-9-yl)ethyl)amino)benzoic acid] | 177 | > 10000 |
| Cc1cc([C@@H](C)Nc2ccccc2C(=O)O)c2nc(N3CCC4(CC3)CC4(F)F)c(C)c(=O)n2c1 [Example 11-219, (R)-2-((1-(2-(1,1-difluoro-6-azaspiro[2.5]octan-6-yl)-3,7-dimethyl-4-oxo-4H-pyrido[1,2-a]pyrimidin-9-yl)ethyl)amino)benzoic acid] | 495 | > 10000 |
| Cc1cc([C@@H](C)Nc2ccccc2C(=O)O)c2nc(N3CCC4(CC3)CC4)c(C#N)c(=O)n2c1 [Example 11-220, (R)-2-((1-(3-cyano-7-methyl-4-oxo-2-(6-azaspiro[2.5]octan-6-yl)-4H-pyrido[1,2-a]pyrimidin-9-yl)ethyl)amino)benzoic acid] | 117 | > 10000 |
| Cc1cc([C@@H](C)Nc2ccccc2C(=O)O)c2nc(N3CCC4(CC3)CC4)c(C)c(=O)n2c1 [Example 11-221, (R)-2-((1-(3,7-dimethyl-4-oxo-2-(6-azaspiro[2.5]octan-6-yl)-4H-pyrido[1,2-a]pyrimidin-9-yl)ethyl)amino)benzoic acid] | 255 | > 10000 |
| Cc1cc([C@@H](C)Nc2ccccc2C(=O)O)c2nc(N3CC4C(C3)C4(F)F)c(C)c(=O)n2c1 (stereo partly drawn) [Example 11-222, 2-(((1R)-1-(2-(6,6-difluoro-3-azabicyclo[3.1.0]hexan-3-yl)-3,7-dimethyl-4-oxo-4H-pyrido[1,2-a]pyrimidin-9-yl)ethyl)amino)benzoic acid] | 156 | > 10000 |
| Cc1cc([C@@H](C)Nc2ccccc2C(=O)O)c2nc(N3CC4CC4C3)c(C#N)c(=O)n2c1 (stereo partly drawn) [Example 11-223, 2-(((1R)-1-(2-(3-azabicyclo[3.1.0]hexan-3-yl)-3-cyano-7-methyl-4-oxo-4H-pyrido[1,2-a]pyrimidin-9-yl)ethyl)amino)benzoic acid] | 126 | > 10000 |
| Cc1cc([C@@H](C)Nc2ccccc2C(=O)O)c2nc(N3CC4CC4C3)c(C)c(=O)n2c1 (stereo partly drawn) [Example 11-224, 2-(((1R)-1-(2-(3-azabicyclo[3.1.0]hexan-3-yl)-3,7-dimethyl-4-oxo-4H-pyrido[1,2-a]pyrimidin-9-yl)ethyl)amino)benzoic acid] | 120 | > 10000 |
| Cc1cc([C@@H](C)Nc2ccccc2C(=O)O)c2nc(N3CCN(c4cccc(C#N)c4)CC3)c(C#N)c(=O)n2c1 [Example 11-225, (R)-2-((1-(3-cyano-2-(4-(3-cyanophenyl)piperazin-1-yl)-7-methyl-4-oxo-4H-pyrido[1,2-a]pyrimidin-9-yl)ethyl)amino)benzoic acid] | 144 | > 10000 |
| Cc1cc([C@@H](C)Nc2ccccc2C(=O)O)c2nc(N3CCN(c4cccc(C#N)c4)CC3)c(C)c(=O)n2c1 [Example 11-226, (R)-2-((1-(2-(4-(3-cyanophenyl)piperazin-1-yl)-3,7-dimethyl-4-oxo-4H-pyrido[1,2-a]pyrimidin-9-yl)ethyl)amino)benzoic acid] | 282 | > 10000 |
| Cc1cc([C@@H](C)Nc2ccccc2C(=O)O)c2nc(N3CC4CC(C4)C3)c(C#N)c(=O)n2c1 [Example 11-227, (R)-2-((1-(2-(3-azabicyclo[3.1.1]heptan-3-yl)-3-cyano-7-methyl-4-oxo-4H-pyrido[1,2-a]pyrimidin-9-yl)ethyl)amino)benzoic acid] | 123 | > 10000 |
